Assays:
[1] = molecular target: T1, P2X purinoceptor 4 (Homo sapiens, UniProt Q99571); assay: Antagonist activity against recombinant human P2X purinoceptor 4 (P2X4); format: functional
T1 sequence (Q99571 whole entry): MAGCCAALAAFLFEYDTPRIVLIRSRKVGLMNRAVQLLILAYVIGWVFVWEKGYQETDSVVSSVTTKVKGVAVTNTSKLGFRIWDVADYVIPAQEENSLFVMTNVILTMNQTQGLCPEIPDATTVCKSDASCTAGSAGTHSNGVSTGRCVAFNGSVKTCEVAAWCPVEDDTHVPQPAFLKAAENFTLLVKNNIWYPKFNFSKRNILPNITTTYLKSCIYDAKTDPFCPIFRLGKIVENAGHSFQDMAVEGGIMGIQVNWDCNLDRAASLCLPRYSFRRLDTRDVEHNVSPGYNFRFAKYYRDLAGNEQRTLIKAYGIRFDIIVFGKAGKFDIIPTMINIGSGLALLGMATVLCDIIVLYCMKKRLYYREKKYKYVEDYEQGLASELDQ

[2] = molecular target: T2, P2X purinoceptor 4 (Rattus norvegicus, UniProt P51577); assay: Antagonist activity against recombinant rat P2X purinoceptor 4 (P2X4) at 30 uM, expressed in Xenopus oocytes; format: functional, cell-based, Oocyte
T2 sequence (P51577 whole entry): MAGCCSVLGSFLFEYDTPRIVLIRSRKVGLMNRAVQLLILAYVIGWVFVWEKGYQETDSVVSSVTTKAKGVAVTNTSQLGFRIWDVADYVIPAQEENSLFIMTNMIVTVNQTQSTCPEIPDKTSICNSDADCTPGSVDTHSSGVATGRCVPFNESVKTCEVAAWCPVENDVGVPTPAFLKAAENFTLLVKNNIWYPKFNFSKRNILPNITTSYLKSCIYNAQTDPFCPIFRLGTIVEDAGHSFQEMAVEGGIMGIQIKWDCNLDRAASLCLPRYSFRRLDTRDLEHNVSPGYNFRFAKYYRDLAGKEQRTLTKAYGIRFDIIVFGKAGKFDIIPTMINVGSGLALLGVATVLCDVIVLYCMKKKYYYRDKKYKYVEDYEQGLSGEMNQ

[3] = molecular target: T3, P2X purinoceptor 5 (Rattus norvegicus, UniProt P51578); assay: Antagonist activity against recombinant rat P2X purinoceptor 5 (P2X5); format: functional
T3 sequence (P51578 whole entry): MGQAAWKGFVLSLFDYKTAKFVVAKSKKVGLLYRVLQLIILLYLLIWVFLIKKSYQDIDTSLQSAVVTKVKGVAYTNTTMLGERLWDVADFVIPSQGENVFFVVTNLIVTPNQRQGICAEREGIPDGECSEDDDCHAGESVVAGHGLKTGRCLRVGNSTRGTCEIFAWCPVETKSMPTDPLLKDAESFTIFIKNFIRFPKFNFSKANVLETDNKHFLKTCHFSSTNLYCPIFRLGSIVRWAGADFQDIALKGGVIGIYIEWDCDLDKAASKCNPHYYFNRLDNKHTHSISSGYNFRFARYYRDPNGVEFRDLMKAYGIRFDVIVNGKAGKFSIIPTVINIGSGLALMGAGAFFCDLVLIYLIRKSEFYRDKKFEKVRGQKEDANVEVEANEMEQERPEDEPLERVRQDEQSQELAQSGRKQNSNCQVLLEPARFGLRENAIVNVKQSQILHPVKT

[4] = molecular target: P2X purinoceptor 6 (Rattus norvegicus, UniProt P51579); assay: Antagonist activity against recombinant rat P2X purinoceptor 6 (P2X6 ); format: functional
[5] = molecular target: T4, P2X purinoceptor 2 (Rattus norvegicus, UniProt P49653); assay: Antagonist activity against recombinant rat receptor P2X purinoceptor 2 (P2X2) at 10 uM, expressed in Xenopus oocytes; format: functional, cell-based, Oocyte
T4 sequence (P49653 whole entry): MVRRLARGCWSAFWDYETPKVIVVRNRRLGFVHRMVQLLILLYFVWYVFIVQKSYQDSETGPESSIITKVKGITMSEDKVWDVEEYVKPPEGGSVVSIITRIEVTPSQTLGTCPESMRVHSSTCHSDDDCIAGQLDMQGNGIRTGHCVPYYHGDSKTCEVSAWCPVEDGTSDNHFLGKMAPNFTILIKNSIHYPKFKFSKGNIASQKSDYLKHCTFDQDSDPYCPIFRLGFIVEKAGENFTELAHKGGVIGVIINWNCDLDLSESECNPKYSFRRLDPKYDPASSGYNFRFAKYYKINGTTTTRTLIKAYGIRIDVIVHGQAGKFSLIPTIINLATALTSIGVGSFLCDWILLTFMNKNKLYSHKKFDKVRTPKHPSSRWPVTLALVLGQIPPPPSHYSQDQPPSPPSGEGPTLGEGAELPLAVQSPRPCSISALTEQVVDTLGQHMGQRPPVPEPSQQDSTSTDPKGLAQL

[6] = molecular target: P2Y purinoceptor 2 (Homo sapiens, UniProt P41231); assay: Evaluated for agonist activity against phospholipase C coupled recombinant human P2Y purinoceptor 2 (P2Y2); format: functional
[7] = molecular target: T5, P2X purinoceptor 3 (Homo sapiens, UniProt P56373); assay: Antagonist activity against recombinant human P2X purinoceptor 3 (P2X3 ); format: functional
T5 sequence (P56373 whole entry): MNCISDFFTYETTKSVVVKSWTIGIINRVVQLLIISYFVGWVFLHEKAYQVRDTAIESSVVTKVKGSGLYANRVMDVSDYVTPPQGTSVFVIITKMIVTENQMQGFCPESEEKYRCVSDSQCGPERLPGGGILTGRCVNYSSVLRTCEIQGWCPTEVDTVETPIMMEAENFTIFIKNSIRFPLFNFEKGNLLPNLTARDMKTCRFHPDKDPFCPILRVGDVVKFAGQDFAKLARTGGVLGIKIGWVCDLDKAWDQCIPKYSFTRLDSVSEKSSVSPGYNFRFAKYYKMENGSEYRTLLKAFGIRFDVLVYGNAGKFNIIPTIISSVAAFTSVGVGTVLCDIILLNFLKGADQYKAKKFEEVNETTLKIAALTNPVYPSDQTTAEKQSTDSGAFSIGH

[8] = molecular target: T6, P2X purinoceptor 7 (Homo sapiens, UniProt Q99572); assay: Antagonist activity against recombinant human P2X purinoceptor 7 (P2X7); format: functional
T6 sequence (Q99572 whole entry): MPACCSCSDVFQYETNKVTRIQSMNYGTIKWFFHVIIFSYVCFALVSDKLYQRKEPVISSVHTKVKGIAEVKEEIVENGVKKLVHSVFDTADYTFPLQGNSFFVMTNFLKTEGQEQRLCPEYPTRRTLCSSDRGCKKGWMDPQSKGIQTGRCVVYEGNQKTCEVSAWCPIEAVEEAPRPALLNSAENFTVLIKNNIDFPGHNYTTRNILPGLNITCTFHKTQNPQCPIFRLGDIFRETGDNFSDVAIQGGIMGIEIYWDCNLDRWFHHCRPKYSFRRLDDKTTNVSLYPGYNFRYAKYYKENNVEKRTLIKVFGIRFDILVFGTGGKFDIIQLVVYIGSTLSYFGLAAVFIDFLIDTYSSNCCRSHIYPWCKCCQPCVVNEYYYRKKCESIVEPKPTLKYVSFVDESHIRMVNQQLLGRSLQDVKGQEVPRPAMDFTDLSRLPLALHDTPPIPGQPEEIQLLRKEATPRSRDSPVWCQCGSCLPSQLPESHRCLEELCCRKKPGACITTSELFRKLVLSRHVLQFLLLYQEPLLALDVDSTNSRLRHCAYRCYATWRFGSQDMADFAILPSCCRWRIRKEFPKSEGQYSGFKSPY

[9] = molecular target: P2Y purinoceptor 12 (Rattus norvegicus, UniProt Q9EPX4); assay: Antagonist activity against phospholipase C coupled rat P2Y purinoceptor 12 (P2Y12); format: functional
[10] = molecular target: P2Y purinoceptor 4 (Homo sapiens, UniProt P51582); assay: The compound was evaluated for antagonist activity against phospholipase C coupled recombinant human P2Y purinoceptor 4 (P2Y4); format: functional
[11] = molecular target: P2Y purinoceptor 4 (Rattus norvegicus, UniProt O35811); assay: The compound was evaluated for agonist activity against phospholipase C coupled recombinant rat P2Y purinoceptor 4 (P2Y4); format: functional
[12] = molecular target: T7, P2Y purinoceptor 6 (Homo sapiens, UniProt Q15077); assay: (§1) The compound was evaluated for agonist activity against phospholipase C coupled recombinant human P2Y purinoceptor 6 (P2Y6); format: functional
[13] = molecular target: T8, P2X purinoceptor 1 (Homo sapiens, UniProt P51575); assay: Antagonist activity against recombinant human P2X purinoceptor 1 (P2X1 ); format: functional
T8 sequence (P51575 whole entry): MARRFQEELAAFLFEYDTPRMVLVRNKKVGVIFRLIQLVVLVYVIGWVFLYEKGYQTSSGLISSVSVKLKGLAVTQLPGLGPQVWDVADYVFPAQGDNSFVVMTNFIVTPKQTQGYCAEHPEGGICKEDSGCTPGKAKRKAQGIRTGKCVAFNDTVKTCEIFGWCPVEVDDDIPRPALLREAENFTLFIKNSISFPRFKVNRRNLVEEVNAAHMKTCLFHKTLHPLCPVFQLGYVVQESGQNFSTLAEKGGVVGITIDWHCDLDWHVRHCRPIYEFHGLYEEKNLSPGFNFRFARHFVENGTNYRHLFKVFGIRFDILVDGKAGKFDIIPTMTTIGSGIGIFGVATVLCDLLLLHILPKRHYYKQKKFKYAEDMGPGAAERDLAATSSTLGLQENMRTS

[14] = molecular target: P2Y purinoceptor 1 (Homo sapiens, UniProt P47900); assay: Evaluated for agonist activity against phospholipase C coupled P2Y purinoceptor 1 (P2Y1) of human erythrocytes; format: functional
[15] = molecular target: T2, P2X purinoceptor 4; assay: Antagonist activity against recombinant rat P2X purinoceptor 4 (P2X4) at 3 uM, expressed in Xenopus oocytes; format: functional, cell-based, Oocyte
[16] = molecular target: T4, P2X purinoceptor 2; assay: The compound was evaluated for antagonist activity against recombinant rat receptor P2X purinoceptor 2 (P2X2) at 30 uM, expressed in Xenopus oocytes; format: functional, cell-based, Oocyte
[17] = molecular target: P2X purinoceptor 7 (Rattus norvegicus, UniProt Q64663); assay: The compound was evaluated for antagonist activity against recombinant rat P2X purinoceptor 7 (P2X7); format: functional
[18] = molecular target: T7, P2Y purinoceptor 6; assay: as §1; format: functional; settings: concentration not given here
[19] = molecular target: T9, P2X purinoceptor 1 (Rattus norvegicus, UniProt P47824); assay: The compound was evaluated for antagonist activity against recombinant rat P2X purinoceptor 1 (P2X1) at 1 uM, expressed in Xenopus oocytes; format: functional, cell-based, Oocyte
T9 sequence (P47824 whole entry): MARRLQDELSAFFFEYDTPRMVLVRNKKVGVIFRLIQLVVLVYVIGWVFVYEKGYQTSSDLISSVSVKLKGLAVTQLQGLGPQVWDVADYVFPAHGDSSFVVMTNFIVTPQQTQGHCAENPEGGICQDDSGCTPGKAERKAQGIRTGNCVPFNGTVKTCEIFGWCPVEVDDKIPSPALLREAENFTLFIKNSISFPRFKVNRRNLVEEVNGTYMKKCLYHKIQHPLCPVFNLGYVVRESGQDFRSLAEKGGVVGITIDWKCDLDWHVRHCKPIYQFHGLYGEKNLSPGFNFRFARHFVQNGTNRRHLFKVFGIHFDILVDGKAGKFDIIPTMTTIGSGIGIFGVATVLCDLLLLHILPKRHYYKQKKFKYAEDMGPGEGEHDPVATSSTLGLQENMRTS

[20] = molecular target: P2Y purinoceptor 1 (Rattus norvegicus) (UniProt P49651); assay: Evaluated for agonist activity against phospholipase C coupled P2Y purinoceptor 1 (P2Y1) of rat erythrocytes
[21] = molecular target: T10, P2Y purinoceptor 11 (Homo sapiens, UniProt Q96G91); assay: Agonist activity against phospholipase C coupled human P2Y purinoceptor 11 (P2Y11); format: functional
T10 sequence (Q96G91 whole entry): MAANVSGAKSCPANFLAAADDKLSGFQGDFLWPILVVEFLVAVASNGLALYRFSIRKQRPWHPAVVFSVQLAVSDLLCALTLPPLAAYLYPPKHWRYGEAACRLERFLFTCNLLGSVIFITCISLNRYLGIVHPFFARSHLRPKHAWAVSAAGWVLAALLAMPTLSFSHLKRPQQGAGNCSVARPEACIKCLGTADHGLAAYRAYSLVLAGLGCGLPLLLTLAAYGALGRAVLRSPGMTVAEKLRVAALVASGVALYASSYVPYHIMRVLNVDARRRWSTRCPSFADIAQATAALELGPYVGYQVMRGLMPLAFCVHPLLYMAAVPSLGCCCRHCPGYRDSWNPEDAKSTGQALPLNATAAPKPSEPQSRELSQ

[22] = molecular target: P2Y purinoceptor 1 (Meleagris gallopavo, UniProt P49652); assay: Evaluated for antagonist activity agonist phospholipase C coupled P2Y purinoceptor 1 (P2Y1) of turkey erythrocytes; format: functional
Chain of P2Y purinoceptor 1 (Meleagris gallopavo, UniProt P49652) (P49652 whole entry): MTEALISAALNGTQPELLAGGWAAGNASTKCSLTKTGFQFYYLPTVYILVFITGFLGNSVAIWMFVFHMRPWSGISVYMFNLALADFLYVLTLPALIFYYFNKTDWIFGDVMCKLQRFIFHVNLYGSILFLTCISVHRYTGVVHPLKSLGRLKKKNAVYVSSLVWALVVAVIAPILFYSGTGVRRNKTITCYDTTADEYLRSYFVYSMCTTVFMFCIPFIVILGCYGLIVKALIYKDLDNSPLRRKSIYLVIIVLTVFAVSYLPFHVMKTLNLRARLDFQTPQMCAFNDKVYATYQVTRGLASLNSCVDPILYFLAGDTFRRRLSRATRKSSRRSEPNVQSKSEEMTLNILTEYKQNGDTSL

Chain of P2Y purinoceptor 12 (Q9EPX4 whole entry): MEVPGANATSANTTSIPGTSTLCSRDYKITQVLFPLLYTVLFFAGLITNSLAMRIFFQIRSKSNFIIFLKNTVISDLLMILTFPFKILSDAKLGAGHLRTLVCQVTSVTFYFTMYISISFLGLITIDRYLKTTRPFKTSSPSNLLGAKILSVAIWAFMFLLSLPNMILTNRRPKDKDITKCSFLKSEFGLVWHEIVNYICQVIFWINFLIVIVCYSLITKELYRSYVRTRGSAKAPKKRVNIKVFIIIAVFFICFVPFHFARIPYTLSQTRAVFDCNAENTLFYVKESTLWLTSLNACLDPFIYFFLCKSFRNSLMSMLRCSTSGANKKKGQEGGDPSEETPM
Chain of P2Y purinoceptor 2 (P41231 whole entry): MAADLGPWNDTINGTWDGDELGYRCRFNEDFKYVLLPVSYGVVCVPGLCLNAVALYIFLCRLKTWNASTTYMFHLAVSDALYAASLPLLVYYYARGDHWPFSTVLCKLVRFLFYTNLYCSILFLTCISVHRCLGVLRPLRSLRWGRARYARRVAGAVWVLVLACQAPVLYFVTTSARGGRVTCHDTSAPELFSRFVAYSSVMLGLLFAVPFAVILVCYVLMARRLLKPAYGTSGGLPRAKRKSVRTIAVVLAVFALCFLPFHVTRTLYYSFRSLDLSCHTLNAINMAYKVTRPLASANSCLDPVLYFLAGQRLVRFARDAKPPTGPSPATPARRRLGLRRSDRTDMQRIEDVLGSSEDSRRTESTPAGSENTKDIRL
Chain of P2Y purinoceptor 4 (Homo sapiens, UniProt P51582) (P51582 whole entry): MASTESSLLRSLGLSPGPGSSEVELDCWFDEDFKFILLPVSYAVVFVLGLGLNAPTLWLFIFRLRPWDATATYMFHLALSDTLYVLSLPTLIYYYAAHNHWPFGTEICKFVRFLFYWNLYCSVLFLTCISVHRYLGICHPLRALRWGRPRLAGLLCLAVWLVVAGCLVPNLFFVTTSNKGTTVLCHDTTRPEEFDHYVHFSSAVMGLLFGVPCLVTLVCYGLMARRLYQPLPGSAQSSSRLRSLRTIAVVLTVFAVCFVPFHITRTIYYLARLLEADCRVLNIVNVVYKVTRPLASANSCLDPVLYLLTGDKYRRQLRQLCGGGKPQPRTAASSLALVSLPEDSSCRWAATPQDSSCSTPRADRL
T7 sequence (Q15077 whole entry): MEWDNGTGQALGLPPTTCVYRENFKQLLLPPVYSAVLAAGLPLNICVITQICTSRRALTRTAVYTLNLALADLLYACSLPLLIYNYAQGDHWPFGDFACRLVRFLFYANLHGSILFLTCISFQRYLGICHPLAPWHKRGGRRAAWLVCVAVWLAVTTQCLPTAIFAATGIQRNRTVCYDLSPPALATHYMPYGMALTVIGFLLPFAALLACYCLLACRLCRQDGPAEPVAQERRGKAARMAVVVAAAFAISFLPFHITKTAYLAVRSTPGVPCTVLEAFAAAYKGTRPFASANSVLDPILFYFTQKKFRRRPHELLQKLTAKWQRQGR
Chain of P2X purinoceptor 6 (P51579 whole entry): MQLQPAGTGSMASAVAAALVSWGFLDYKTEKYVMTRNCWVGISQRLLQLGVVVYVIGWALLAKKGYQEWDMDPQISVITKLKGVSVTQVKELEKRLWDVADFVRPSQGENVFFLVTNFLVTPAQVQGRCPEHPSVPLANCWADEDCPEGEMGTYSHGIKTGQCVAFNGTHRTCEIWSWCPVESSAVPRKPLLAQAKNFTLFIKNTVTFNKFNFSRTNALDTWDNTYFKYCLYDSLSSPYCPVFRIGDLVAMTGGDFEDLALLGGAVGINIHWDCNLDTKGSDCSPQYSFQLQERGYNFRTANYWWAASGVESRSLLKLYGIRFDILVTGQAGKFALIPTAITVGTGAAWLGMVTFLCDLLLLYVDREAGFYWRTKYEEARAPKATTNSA
Chain of P2Y purinoceptor 1 (Rattus norvegicus) (P49651 whole entry, looked up): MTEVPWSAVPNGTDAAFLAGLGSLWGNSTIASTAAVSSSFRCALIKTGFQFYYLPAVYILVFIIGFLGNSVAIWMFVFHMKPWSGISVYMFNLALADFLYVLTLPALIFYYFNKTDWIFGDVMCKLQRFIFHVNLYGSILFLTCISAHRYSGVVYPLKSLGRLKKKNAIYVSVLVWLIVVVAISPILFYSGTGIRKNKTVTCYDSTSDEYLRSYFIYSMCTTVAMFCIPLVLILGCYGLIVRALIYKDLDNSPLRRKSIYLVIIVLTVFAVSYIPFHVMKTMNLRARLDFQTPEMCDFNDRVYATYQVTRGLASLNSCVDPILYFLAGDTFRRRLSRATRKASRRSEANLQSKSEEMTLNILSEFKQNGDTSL
Chain of P2Y purinoceptor 4 (Rattus norvegicus, UniProt O35811) (O35811 whole entry): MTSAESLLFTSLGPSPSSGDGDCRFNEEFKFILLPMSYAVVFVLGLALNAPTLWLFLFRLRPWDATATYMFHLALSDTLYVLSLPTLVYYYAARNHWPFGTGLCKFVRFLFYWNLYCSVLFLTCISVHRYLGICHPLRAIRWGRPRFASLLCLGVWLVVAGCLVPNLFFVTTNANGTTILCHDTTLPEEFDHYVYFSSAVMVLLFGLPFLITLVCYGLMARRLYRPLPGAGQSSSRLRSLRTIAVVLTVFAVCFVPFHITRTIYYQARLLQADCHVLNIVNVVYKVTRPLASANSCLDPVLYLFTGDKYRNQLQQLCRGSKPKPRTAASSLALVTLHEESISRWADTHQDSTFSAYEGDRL
Chain of P2X purinoceptor 7 (Rattus norvegicus, UniProt Q64663) (Q64663 whole entry): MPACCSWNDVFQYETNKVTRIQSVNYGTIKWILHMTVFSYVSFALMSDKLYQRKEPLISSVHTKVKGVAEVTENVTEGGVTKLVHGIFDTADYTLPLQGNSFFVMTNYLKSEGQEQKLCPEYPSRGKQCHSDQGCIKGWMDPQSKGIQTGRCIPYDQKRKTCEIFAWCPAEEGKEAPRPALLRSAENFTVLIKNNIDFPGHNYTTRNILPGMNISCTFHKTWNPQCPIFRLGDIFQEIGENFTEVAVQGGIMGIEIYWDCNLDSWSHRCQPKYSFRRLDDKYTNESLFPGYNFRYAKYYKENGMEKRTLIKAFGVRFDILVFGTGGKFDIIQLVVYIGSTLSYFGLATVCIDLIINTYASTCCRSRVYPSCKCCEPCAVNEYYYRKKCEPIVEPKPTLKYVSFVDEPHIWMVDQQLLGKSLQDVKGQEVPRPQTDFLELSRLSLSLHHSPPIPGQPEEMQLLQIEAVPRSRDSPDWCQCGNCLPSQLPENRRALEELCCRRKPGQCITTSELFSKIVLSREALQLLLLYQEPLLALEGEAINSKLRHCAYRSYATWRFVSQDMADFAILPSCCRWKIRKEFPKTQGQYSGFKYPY
Chain of P2Y purinoceptor 1 (Homo sapiens, UniProt P47900) (P47900 whole entry): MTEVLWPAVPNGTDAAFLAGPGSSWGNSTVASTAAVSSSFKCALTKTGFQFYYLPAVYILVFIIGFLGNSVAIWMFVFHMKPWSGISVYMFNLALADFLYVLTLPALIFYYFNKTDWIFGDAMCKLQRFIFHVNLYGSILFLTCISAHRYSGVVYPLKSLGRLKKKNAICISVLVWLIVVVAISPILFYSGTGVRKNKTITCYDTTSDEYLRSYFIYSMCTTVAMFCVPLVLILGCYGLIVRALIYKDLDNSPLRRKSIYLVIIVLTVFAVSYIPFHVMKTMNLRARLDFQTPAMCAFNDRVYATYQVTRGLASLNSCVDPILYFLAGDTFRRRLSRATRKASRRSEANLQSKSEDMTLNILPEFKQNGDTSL

Structure (SMILES)	EC50 [1]	EC50 [3]	EC50 [4]	EC50 [5]	EC50 [6]	EC50 [9]	EC50 [10]	also measured
Nc1ncnc2c1ncn2[C@@H]1O[C@H](COP(=O)(O)OP(=O)(O)OP(=O)(O)O)[C@@H](O)[C@H]1O [ADENOSINE TRIPHOSPHATE]	500 nM	1000 nM	1000 nM	1400 nM	230 nM	3190 nM	43000 nM	EC50 [2]: 1000 nM; EC50 [7]: 340 nM; EC50 [8]: 780000 nM; EC50 [11]: 1800 nM; EC50 [12]: > 100000 nM; EC50 [13]: 56 nM
Cc1nc(/N=N/c2ccc(S(=O)(=O)O)cc2S(=O)(=O)O)c(COP(=O)(O)O)c(C=O)c1O	–	2600 nM	> 100000 nM	–	> 10000 nM	> 100000 nM	> 10000 nM	EC50 [14]: 1000 nM; EC50 [15]: > 10000 nM; EC50 [16]: 12000 nM; EC50 [17]: 62000 nM; inhibition [18]: 69%; EC50 [19]: 99 nM; EC50 [20]: 18200 nM
Nc1c(S(=O)(=O)O)cc(Nc2ccc(Nc3nc(Cl)nc(Nc4cccc(S(=O)(=O)O)c4)n3)c(S(=O)(=O)O)c2)c2c1C(=O)c1ccccc1C2=O [RB 2]	128000 nM	–	–	360 nM	> 100000 nM	25 nM	–	EC50 [21]: > 100000 nM; EC50 [22]: > 10000 nM
